Experimental data from US4428938A, “Peptides affecting the immune regulation and a process for their preparation” (Richter Gedeon Vegyeszeti Gyar Rt., priority 1981, dated 1984).
Non-standard residues stand in square brackets, D forms with d. Residues, ends and D or L forms follow the SMILES beside them. pGlu = O=C1CC[C@@H](C(=O)O)N1

Tests used:
[1] = system: lymphocytes of patients suffering from rheumatoid arthritis; experiment: Active E-rosette test, lymphocytes of rheumatoid arthritis patients; assay type: cell-based, human; conditions: for E-rosette forming activity, percentage amount of active lymphocytes: n = 4
Method: (§1) The active E-rosette test was carried out according to a modified method of Wybran et al [Wybran et al: New Engl. J. Med. 292, 475 (1975)] by the lymphocites of healthy and autoimmune patients (rheumatoid arthritis and systemic lupus erythematosus). To 50 μl of a lymphocyte cell suspension 10^-3 -10^-11 moles/lit. solutions of the test material were added and the mixture was incubated in an atmosphere containing 5.0% of carbon dioxide, at 37° C. for 60 minutes. Thereafter 50 μlit. of a 1% sheep erythrocite suspension were added and the mixture was centrifuged at 1000 r.p.m. for 10 minutes followed by shaking with a modified Gallenkampf-shaker (shaking time: 30 sec, stroke: 8 cm, shaking frequency: 65/min.). The rosettes were fixed with a 0.1% glutaric aldehyde (50 μlit. for each tube, 3 min.). Lymphocytes bonding more than three sheep erythrocite were counted under a microscope and 4×100 cells were evaluated. The separated lymphocytes contain macrophages and polymorphonuclear cells (up to 10%) as an impurity. The number of the cells forming the rosettes was corrected by this value each case.

[2] = system: lymphocytes of healthy persons; experiment: Active E-rosette test, lymphocytes of healthy persons; assay type: cell-based, human; conditions: for E-rosette forming activity, percentage amount of active lymphocytes: n = 4
Method: as §1

[3] = system: antibody production against sheep erythrocyte; experiment: Effect on antibody production (Ceglowski's method), agglutination titer; assay type: in vivo, H. Wistar rats
Method: (1) The effect on antibody production was tested according to Ceglowski's method [Ceglowski: Ann. N.Y. Acad. Sci. 249, 343 (1975)]. New-born H. Wistar rats were treated with single 25 μlit. doses of 4×10^-3 -4×10^-7 moles/lit. of the test material (9 animals for each dose) at the latest at the 12th hour after birth. The 14-day animals were then immunized with a sheep erythrocyte suspension administering 0.5 ml. of a 5% sheep erythrocyte suspension each animal intraperitoneally. On the 7th day after immunization the animals were decapitated. The blood of three animals was mixed and from the serum obtained (after centrifuging at 3000 r.p.m. for 10 minutes) the titers for antibodies were determined by the method of Takatsy [Takatsy: Acta Microbiol. Acad. Sci. Hung. 3, 191 (1955)]. The results are expressed in agglutination titers. The titer corresponds to the […] dilution of the serum in which agglutination can be observed.

CC(C)[C@H](NC(=O)[C@H](CC(N)=O)NC(=O)[C@H](CCCCN)NC(=O)[C@@H](N)CCCNC(=N)N)C(=O)O [compound No. 9] (H-RKNV-OH)
Effect on E-rosette forming activity (in words) ([1]; 10^-5 moles/lit.): significant inhibiting activity

CC(C)[C@H](NC(=O)[C@H](CC(=O)O)NC(=O)[C@H](C)NC(=O)[C@@H](N)CCCNC(=N)N)C(=O)O [Arg--Ala--Asp--Val, Arg-Ala-Asp-Val] (H-RADV-OH)
E-rosette forming activity, percentage amount of active lymphocytes ([1]; 10^-3 moles/liter): 21.8%
E-rosette forming activity, percentage amount of active lymphocytes ([1]; 10^-5 moles/liter): 20.2%
E-rosette forming activity, percentage amount of active lymphocytes ([1]; 10^-7 moles/liter): 19.8%
E-rosette forming activity, percentage amount of active lymphocytes ([1]; 10^-9 moles/liter): 20.7%
E-rosette forming activity, percentage amount of active lymphocytes ([1]; 10^-11 moles/liter): 22.5%
E-rosette forming activity, percentage amount of active lymphocytes ([2]; 10^-3 moles/liter): 32.5%
E-rosette forming activity, percentage amount of active lymphocytes ([2]; 10^-5 moles/liter): 33.4%
E-rosette forming activity, percentage amount of active lymphocytes ([2]; 10^-7 moles/liter): 32.4%
E-rosette forming activity, percentage amount of active lymphocytes ([2]; 10^-9 moles/liter): 38.2%
E-rosette forming activity, percentage amount of active lymphocytes ([2]; 10^-11 moles/liter): 36.0%

N=C(N)NCCC[C@H](NC(=O)[C@@H]1CCC(=O)N1)C(=O)N[C@@H](CCCCN)C(=O)N[C@@H](CC(=O)O)C(=O)O [Glp--Arg--Lys--Asp, Glp-Arg-Lys-Asp] ([pGlu]RKD-OH)
E-rosette forming activity, percentage amount of active lymphocytes ([1]; 10^-3 moles/liter): 20.6%
E-rosette forming activity, percentage amount of active lymphocytes ([1]; 10^-5 moles/liter): 18.7%
E-rosette forming activity, percentage amount of active lymphocytes ([1]; 10^-7 moles/liter): 19.5%
E-rosette forming activity, percentage amount of active lymphocytes ([1]; 10^-9 moles/liter): 19.7%
E-rosette forming activity, percentage amount of active lymphocytes ([1]; 10^-11 moles/liter): 18.4%
E-rosette forming activity, percentage amount of active lymphocytes ([2]; 10^-3 moles/liter): 29.1%
E-rosette forming activity, percentage amount of active lymphocytes ([2]; 10^-5 moles/liter): 33.8%
E-rosette forming activity, percentage amount of active lymphocytes ([2]; 10^-7 moles/liter): 35.1%
E-rosette forming activity, percentage amount of active lymphocytes ([2]; 10^-9 moles/liter): 26.6%
Effect on E-rosette forming activity (in words) ([2]; 10^-11 moles/lit.): stimulating effect
E-rosette forming activity, percentage amount of active lymphocytes ([2]; 10^-11 moles/liter): 38.1%

CC(C)[C@H](NC(=O)[C@H](CCCCN)NC(=O)[C@H](CC(=O)O)NC(=O)[C@@H](N)CCCNC(=N)N)C(=O)O [Arg--Asp--Lys--Val, Arg-Asp-Lys-Val] (H-RDKV-OH)
E-rosette forming activity, percentage amount of active lymphocytes ([1]; 10^-3 moles/liter): 25.4%
E-rosette forming activity, percentage amount of active lymphocytes ([1]; 10^-5 moles/liter): 26.2%
E-rosette forming activity, percentage amount of active lymphocytes ([1]; 10^-7 moles/liter): 26.4%
E-rosette forming activity, percentage amount of active lymphocytes ([1]; 10^-9 moles/liter): 27.3%
E-rosette forming activity, percentage amount of active lymphocytes ([1]; 10^-11 moles/liter): 27.5%
E-rosette forming activity, percentage amount of active lymphocytes ([2]; 10^-3 moles/liter): 34.2%
E-rosette forming activity, percentage amount of active lymphocytes ([2]; 10^-5 moles/liter): 37.5%
E-rosette forming activity, percentage amount of active lymphocytes ([2]; 10^-7 moles/liter): 37.7%
Effect on E-rosette forming activity (in words) ([2]; 10^-9 moles/lit.): significant stimulating effect
E-rosette forming activity, percentage amount of active lymphocytes ([2]; 10^-9 moles/liter): 40.4%
E-rosette forming activity, percentage amount of active lymphocytes ([2]; 10^-11 moles/liter): 36.4%

CC[C@H](C)[C@H](NC(=O)[C@H](CC(=O)O)NC(=O)[C@H](CCCCN)NC(=O)[C@@H](N)CCCNC(=N)N)C(=O)O [Arg--Lys--Asp--Ile, Arg-Lys-Asp-Ile] (H-RKDI-OH)
E-rosette forming activity, percentage amount of active lymphocytes ([1]; 10^-3 moles/liter): 25.5%
E-rosette forming activity, percentage amount of active lymphocytes ([1]; 10^-5 moles/liter): 25.4%
E-rosette forming activity, percentage amount of active lymphocytes ([1]; 10^-7 moles/liter): 23.2%
E-rosette forming activity, percentage amount of active lymphocytes ([1]; 10^-9 moles/liter): 28.7%
E-rosette forming activity, percentage amount of active lymphocytes ([1]; 10^-11 moles/liter): 24.5%
E-rosette forming activity, percentage amount of active lymphocytes ([2]; 10^-3 moles/liter): 35.5%
E-rosette forming activity, percentage amount of active lymphocytes ([2]; 10^-5 moles/liter): 32.0%
E-rosette forming activity, percentage amount of active lymphocytes ([2]; 10^-7 moles/liter): 34.9%
E-rosette forming activity, percentage amount of active lymphocytes ([2]; 10^-9 moles/liter): 35.0%
E-rosette forming activity, percentage amount of active lymphocytes ([2]; 10^-11 moles/liter): 30.7%

CC(C)[C@H](NC(=O)[C@H](CC(=O)O)NC(=O)[C@H](CCCCN)NC(=O)[C@H](CCCNC(=N)N)NC(=O)[C@@H]1CCC(=O)N1)C(=O)O [Glp--Arg--Lys--Asp--Val, Glp-Arg-Lys-Asp-Val] ([pGlu]RKDV-OH)
In vivo effect on the antibody production (in words) ([3]; 4.10^-7 moles/lit.): inhibiting activity
Antibody production, agglutination titer (X ± S.D.) ([3]; single 25 μlit. dose of 4·10^-3 moles/liter to new-born rats): 9.0 ± 2.6
Antibody production, agglutination titer (X ± S.D.) ([3]; single 25 μlit. dose of 4·10^-5 moles/liter to new-born rats): 8.3 ± 0.6
Antibody production, agglutination titer (X ± S.D.) ([3]; single 25 μlit. dose of 4·10^-7 moles/liter to new-born rats): 7.2 ± 1.3
E-rosette forming activity, percentage amount of active lymphocytes ([1]; 10^-3 moles/liter): 22.8%
E-rosette forming activity, percentage amount of active lymphocytes ([1]; 10^-5 moles/liter): 23.2%
E-rosette forming activity, percentage amount of active lymphocytes ([1]; 10^-7 moles/liter): 21.4%
E-rosette forming activity, percentage amount of active lymphocytes ([1]; 10^-9 moles/liter): 19.4%
E-rosette forming activity, percentage amount of active lymphocytes ([1]; 10^-11 moles/liter): 20.4%

CC(C)[C@H](NC(=O)[C@H](CC(N)=O)NC(=O)[C@H](CCCCN)NC(=O)[C@@H](N)CCCNC(=N)N)C(=O)O [Arg--Lys--Asn--Val, Arg-Lys-Asn-Val] (H-RKNV-OH)
E-rosette forming activity, percentage amount of active lymphocytes ([1]; 10^-3 moles/liter): 22.3%
E-rosette forming activity, percentage amount of active lymphocytes ([1]; 10^-5 moles/liter): 21.9%
E-rosette forming activity, percentage amount of active lymphocytes ([1]; 10^-7 moles/liter): 24.6%
E-rosette forming activity, percentage amount of active lymphocytes ([1]; 10^-9 moles/liter): 23.7%
E-rosette forming activity, percentage amount of active lymphocytes ([1]; 10^-11 moles/liter): 24.3%
E-rosette forming activity, percentage amount of active lymphocytes ([2]; 10^-3 moles/liter): 35.5%
E-rosette forming activity, percentage amount of active lymphocytes ([2]; 10^-5 moles/liter): 39.1%
E-rosette forming activity, percentage amount of active lymphocytes ([2]; 10^-9 moles/liter): 35.4%
E-rosette forming activity, percentage amount of active lymphocytes ([2]; 10^-11 moles/liter): 36.7%

CC(C)[C@H](NC(=O)[C@H](CC(=O)O)NC(=O)[C@H](CCCNC(=N)N)NC(=O)[C@@H](N)CCCCN)C(=O)O [Lys--Arg--Asp--Val, Lys-Arg-Asp-Val] (H-KRDV-OH)
E-rosette forming activity, percentage amount of active lymphocytes ([1]; 10^-3 moles/liter): 23.6%
E-rosette forming activity, percentage amount of active lymphocytes ([1]; 10^-5 moles/liter): 25.8%
E-rosette forming activity, percentage amount of active lymphocytes ([1]; 10^-7 moles/liter): 21.2%
Effect on E-rosette forming activity (in words) ([1]; 10^-9 moles/lit.): significantly stimulated
E-rosette forming activity, percentage amount of active lymphocytes ([1]; 10^-9 moles/liter): 25.7%
Effect on E-rosette forming activity (in words) ([1]; 10^-11 moles/lit.): stimulating effect
E-rosette forming activity, percentage amount of active lymphocytes ([1]; 10^-11 moles/liter): 26.6%
E-rosette forming activity, percentage amount of active lymphocytes ([2]; 10^-3 moles/liter): 31.5%
E-rosette forming activity, percentage amount of active lymphocytes ([2]; 10^-5 moles/liter): 25.6%
E-rosette forming activity, percentage amount of active lymphocytes ([2]; 10^-7 moles/liter): 30.0%
E-rosette forming activity, percentage amount of active lymphocytes ([2]; 10^-9 moles/liter): 29.1%
E-rosette forming activity, percentage amount of active lymphocytes ([2]; 10^-11 moles/liter): 32.9%

N=C(N)NCCC[C@H](NC(=O)[C@@H]1CCC(=O)N1)C(=O)N[C@@H](CCCCN)C(=O)N[C@@H](CC(=O)O)C(=O)O [compound No. 8] ([pGlu]RKD-OH)
Effect on E-rosette forming activity (in words) ([1]; 10^-5 moles/lit.): significant inhibiting activity

CC(C)[C@H](NC(=O)[C@H](CCC(=O)O)NC(=O)[C@H](CCCCN)NC(=O)[C@@H](N)CCCNC(=N)N)C(=O)O [Arg--Lys--Glu--Val, Arg-Lys-Glu-Val] (H-RKEV-OH)
E-rosette forming activity, percentage amount of active lymphocytes ([2]; 10^-3 moles/liter): 33.2%
E-rosette forming activity, percentage amount of active lymphocytes ([2]; 10^-5 moles/liter): 32.9%
E-rosette forming activity, percentage amount of active lymphocytes ([2]; 10^-7 moles/liter): 36.2%
E-rosette forming activity, percentage amount of active lymphocytes ([2]; 10^-9 moles/liter): 35.4%
E-rosette forming activity, percentage amount of active lymphocytes ([2]; 10^-11 moles/liter): 33.0%

CC(C)[C@H](NC(=O)[C@H](C)NC(=O)[C@H](CCCCN)NC(=O)[C@@H](N)CCCNC(=N)N)C(=O)O [Arg--Lys--Ala--Val, Arg-Lys-Ala-Val] (H-RKAV-OH)
E-rosette forming activity, percentage amount of active lymphocytes ([1]; 10^-3 moles/liter): 20.3%
E-rosette forming activity, percentage amount of active lymphocytes ([1]; 10^-5 moles/liter): 23.4%
E-rosette forming activity, percentage amount of active lymphocytes ([1]; 10^-7 moles/liter): 21.7%
E-rosette forming activity, percentage amount of active lymphocytes ([1]; 10^-9 moles/liter): 25.5%
E-rosette forming activity, percentage amount of active lymphocytes ([1]; 10^-11 moles/liter): 23.1%
E-rosette forming activity, percentage amount of active lymphocytes ([2]; 10^-3 moles/liter): 33.3%
E-rosette forming activity, percentage amount of active lymphocytes ([2]; 10^-5 moles/liter): 30.5%
E-rosette forming activity, percentage amount of active lymphocytes ([2]; 10^-7 moles/liter): 35.8%
E-rosette forming activity, percentage amount of active lymphocytes ([2]; 10^-9 moles/liter): 34.5%
E-rosette forming activity, percentage amount of active lymphocytes ([2]; 10^-11 moles/liter): 30.9%
